From the NIST ThermoML archive (doi:10.1021/je700140j)

Assay: refractive index (Na D-line) (dimensionless); xn = mol fraction of the nth substance listed
Details: 100.8 kPa, Liquid, Standard Abbe refractometry

OCCc1ccccc1 [2-phenylethanol] + OCc1ccccc1
refractive index
Details	298.15 K	308.15 K	318.15 K
x2 = 0	1.53269	1.52852	1.52427
x2 = 0.05	1.53322	1.52911	1.52495
x2 = 0.1	1.53367	1.52961	1.52549
x2 = 0.15	1.5341	1.53006	1.52594
x2 = 0.2	1.53454	1.5305	1.52636
x2 = 0.25	1.53495	1.53089	1.52674
x2 = 0.3	1.53532	1.53125	1.5271
x2 = 0.35	1.53568	1.53159	1.52745
x2 = 0.4	1.53601	1.53193	1.52777
x2 = 0.45	1.53633	1.53225	1.52809
x2 = 0.5	1.53663	1.53255	1.52839
x2 = 0.55	1.53689	1.53281	1.52864
x2 = 0.6	1.53712	1.53304	1.52888
x2 = 0.65	1.53733	1.53325	1.5291
x2 = 0.7	1.53752	1.53344	1.52929
x2 = 0.75	1.53772	1.53362	1.52947
x2 = 0.8	1.53789	1.53377	1.52961
x2 = 0.85	1.53804	1.53391	1.52973
x2 = 0.9	1.53819	1.53403	1.52984
x2 = 0.95	1.53833	1.53414	1.52993

OCc1ccccc1 [benzenemethanol] + CC(C)O
refractive index
Details	298.15 K	308.15 K	318.15 K
x2 = 0	1.53843	1.53421	1.52994
x2 = 0.05	1.53277	1.52858	1.52435
x2 = 0.1	1.52684	1.52268	1.51849
x2 = 0.15	1.5207	1.51654	1.51233
x2 = 0.2	1.5143	1.51019	1.50598
x2 = 0.25	1.50772	1.50359	1.49935
x2 = 0.3	1.50089	1.49674	1.4925
x2 = 0.35	1.49383	1.48966	1.48542
x2 = 0.4	1.48652	1.48234	1.47809
x2 = 0.45	1.47899	1.4748	1.47053
x2 = 0.5	1.47118	1.46698	1.46269
x2 = 0.55	1.4631	1.45889	1.45458
x2 = 0.6	1.45472	1.4505	1.44616
x2 = 0.65	1.44605	1.44182	1.43746
x2 = 0.7	1.43707	1.43283	1.42848
x2 = 0.75	1.42774	1.4235	1.41916
x2 = 0.8	1.41804	1.4138	1.40943
x2 = 0.85	1.40795	1.40368	1.39933
x2 = 0.9	1.39746	1.39319	1.38883
x2 = 0.95	1.38648	1.38219	1.3778

OCCc1ccccc1 [2-phenylethanol] + CC(C)O
refractive index
Details	298.15 K	308.15 K	318.15 K
x2 = 0	1.53269	1.52852	1.52427
x2 = 0.05	1.52795	1.52391	1.51972
x2 = 0.1	1.523	1.51896	1.51478
x2 = 0.15	1.5178	1.51375	1.50956
x2 = 0.2	1.51235	1.50826	1.50405
x2 = 0.25	1.50661	1.50253	1.49832
x2 = 0.3	1.50063	1.49652	1.49228
x2 = 0.35	1.49437	1.49025	1.48598
x2 = 0.4	1.4878	1.48365	1.47938
x2 = 0.45	1.48091	1.47673	1.47245
x2 = 0.5	1.47367	1.4695	1.46522
x2 = 0.55	1.46611	1.46193	1.45763
x2 = 0.6	1.45816	1.45395	1.44964
x2 = 0.65	1.44975	1.44553	1.4412
x2 = 0.7	1.44087	1.43664	1.4323
x2 = 0.75	1.43149	1.42725	1.4229
x2 = 0.8	1.42156	1.41733	1.41297
x2 = 0.85	1.411	1.40678	1.40239
x2 = 0.9	1.39973	1.39547	1.39112
x2 = 0.95	1.38776	1.38342	1.37903
